The values that follow come from ChEMBL document CHEMBL1201862, “PubChem BioAssay data set” (2004).

Some test systems named below: M14; HT-29; SK-MEL-5; HOP-92; HCC 2998; OVCAR-8; HOP-62; RPMI-8226; Malme-3M; KM12; IGROV-1; SK-OV-3; HCT-15; MOLT-4; SF-295; A549; SW-620; CAKI-1; Hs-578T; SK-MEL-2.
Assay in all cases: NCI anticancer screen, dose series, 48 h

The structures appear in SMILES notation.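 How tested: cells in 96-well plates exposed to compound for 48 hours at five concentrations. GI50 is the concentration that inhibits growth by half.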 The source made the active and inactive calls. Cut-off read from the data, not from the text of the source: active = GI50 up to about 1.1 µM and inactive = higher.

With `COc1cccc(C2c3cc4c(cc3OC(N3CCCC3)C2C)OCO4)c1O` (stereo not given), the GI50 is 3.18 µM (inactive) with M14; 3.32 µM (inactive) in the assay on HT-29; 3.38 µM (inactive) in the assay with SK-MEL-5; 7.82 µM (inactive) in the assay on HOP-92; 12.2 µM (inactive) with HCC 2998; 7.55 µM (inactive) with OVCAR-8. In addition, the GI50 in the assay with HOP-62 was 7.52 µM (inactive); with RPMI-8226 it was 4.23 µM (inactive); in the assay on Malme-3M it was 6.17 µM (inactive); with KM12, 3.03 µM (inactive); in the assay with IGROV-1, 7.14 µM (inactive); in the assay with SK-OV-3, 4.36 µM (inactive). For the same compound, the GI50 was 3.72 µM with HCT-15; 6.7 µM (inactive) in the assay with MOLT-4; 3.51 µM (inactive) in the assay with SF-295; 5.83 µM (inactive) with A549; 3.74 µM (inactive) in the assay with SW-620; 6.32 µM (inactive) with CAKI-1. In addition, the GI50 in the assay on Hs-578T is 3.04 µM (inactive); in the assay with SK-MEL-2, 4.14 µM (inactive).
`CCCC1(CCC)c2cc(/C=N\O)ccc2-c2ccc(-c3ccc(C(C)(C)C)cc3)cc21`: the GI50 is 50.2 µM (inactive) in the assay with M14; > 100 µM (inactive) in the assay on HT-29; 80.4 µM (inactive) in the assay with SK-MEL-5; 64.9 µM (inactive) in the assay with HOP-92; 42.6 µM (inactive) in the assay on HCC 2998; 32.5 µM (inactive) with OVCAR-8. Also, the GI50 in the assay with HOP-62 was > 100 µM (inactive); with RPMI-8226, 33.7 µM (inactive); in the assay with Malme-3M it was > 100 µM (inactive); in the assay with KM12 it was 55.3 µM (inactive); in the assay on IGROV-1, 61.9 µM (inactive); in the assay on SK-OV-3, > 100 µM (inactive). Further, the GI50 with HCT-15 was greater than 100 µM; in the assay with MOLT-4, 23.4 µM (inactive); in the assay on SF-295, 33.2 µM (inactive); in the assay with A549, 53.7 µM (inactive); with SW-620, 34.2 µM (inactive); with CAKI-1, > 100 µM (inactive). Besides, the GI50 with Hs-578T is 88.3 µM (inactive); in the assay on SK-MEL-2, 29 µM (inactive).
As for `CC(=O)OCC1OC(SC2=NC(=O)/C(=C/c3ccccc3)S2)C(OC(C)=O)C(OC(C)=O)C1OC(C)=O` (stereo not given), the GI50 was 31.9 µM (inactive) in the assay on M14; 37.8 µM (inactive) in the assay on HT-29; 18.8 µM (inactive) with SK-MEL-5; 15.7 µM (inactive) in the assay on HOP-92; 28.8 µM (inactive) with HCC 2998; 14.6 µM (inactive) in the assay on OVCAR-8. The GI50 in the assay with HOP-62 is 38.5 µM (inactive); with RPMI-8226 it was 24.4 µM (inactive); with Malme-3M it was 23.7 µM (inactive); in the assay on KM12, 36.9 µM (inactive); with IGROV-1, 35.8 µM (inactive); in the assay with SK-OV-3, 45.7 µM (inactive). In addition, the GI50 was 59 µM in the assay with HCT-15; 21.8 µM (inactive) in the assay with MOLT-4; 62.8 µM (inactive) in the assay on SF-295; 44 µM (inactive) in the assay on A549; 23.8 µM (inactive) in the assay with SW-620; 3.78 µM (inactive) in the assay with CAKI-1. Also, the GI50 with Hs-578T was 23.3 µM (inactive); with SK-MEL-2, 80.4 µM (inactive).
On to `O=C(O)C#Cc1ccc([N+](=O)[O-])cc1`, for which the GI50 in the assay on M14, in the assay with HT-29, with SK-MEL-5, with HOP-92, in the assay with HCC 2998 and in the assay on OVCAR-8 was > 100 µM (inactive) each time. Also, the GI50 in the assay with HOP-62, with RPMI-8226, with Malme-3M, in the assay with KM12, in the assay with IGROV-1 and in the assay with SK-OV-3 was > 100 µM (inactive) each time. Besides, the GI50 is greater than 100 µM in the assay on HCT-15; > 100 µM (inactive) with MOLT-4; > 100 µM (inactive) with SF-295; > 100 µM (inactive) in the assay on A549; > 100 µM (inactive) in the assay with SW-620; > 100 µM (inactive) in the assay with CAKI-1. Also, the GI50 with Hs-578T and with SK-MEL-2 was > 100 µM (inactive) each time.
With `C=CC(=O)c1ccc2c(c1)OCCOCCOCCOCCOCCO2`, the GI50 in the assay on M14 was 20.3 µM (inactive); in the assay with HT-29, 28.9 µM (inactive); with SK-MEL-5, 58.7 µM (inactive); in the assay with HOP-92 it was 17 µM (inactive); with HCC 2998, > 100 µM (inactive); in the assay on OVCAR-8, 20 µM (inactive). Besides, the GI50 in the assay with HOP-62 is > 100 µM (inactive); in the assay on RPMI-8226, > 38.8 µM (inactive); in the assay on Malme-3M, 18.5 µM (inactive); with KM12, > 100 µM (inactive); in the assay on IGROV-1, > 100 µM (inactive); in the assay with SK-OV-3, > 100 µM (inactive). For the same compound, the GI50 was 21.6 µM in the assay with HCT-15; 38.1 µM (inactive) in the assay with MOLT-4; > 100 µM (inactive) in the assay on SF-295; > 100 µM (inactive) in the assay on A549; 18.8 µM (inactive) in the assay with SW-620; 34.4 µM (inactive) in the assay on CAKI-1. Besides, the GI50 in the assay on Hs-578T is > 100 µM (inactive); in the assay with SK-MEL-2 it was 30.5 µM (inactive).
For `O=S(=O)(O)c1ccc(/N=N/c2ccc(/N=N/c3c(O)ccc4ccc(S(=O)(=O)O)cc34)cc2)cc1`, the GI50 in the assay with M14, with HT-29, in the assay on SK-MEL-5, in the assay with HOP-92, in the assay on HCC 2998 and with OVCAR-8 was > 100 µM (inactive) in each case. For the same compound, the GI50 in the assay on HOP-62, in the assay on RPMI-8226, with Malme-3M, in the assay with KM12, in the assay with IGROV-1 and in the assay on SK-OV-3 was > 100 µM (inactive) each time. Besides, the GI50 with HCT-15 is greater than 100 µM; in the assay on MOLT-4, > 100 µM (inactive); in the assay with SF-295, > 100 µM (inactive); in the assay on A549, > 100 µM (inactive); with SW-620 it was > 100 µM (inactive); in the assay with CAKI-1, > 100 µM (inactive). In addition, the GI50 with Hs-578T and in the assay on SK-MEL-2 was > 100 µM (inactive) each time.
Regarding `COC(=O)[C@H]1ON2O[C@H](OC3CCCC[C@@H]3c3ccccc3)C[C@@H]3CC[C@H]1[C@@]32C` (stereo not given in full), the GI50 in the assay on M14 was > 100 µM (inactive); in the assay with HT-29, 51.8 µM (inactive); in the assay on SK-MEL-5, 56.4 µM (inactive); in the assay on HOP-92, 81.7 µM (inactive); with HCC 2998 it was > 100 µM (inactive); in the assay on OVCAR-8 it was > 100 µM (inactive). The GI50 in the assay with HOP-62 is > 100 µM (inactive); with RPMI-8226, 69.7 µM (inactive); with Malme-3M it was > 100 µM (inactive); in the assay on KM12 it was 95.9 µM (inactive); in the assay on IGROV-1 it was > 100 µM (inactive); in the assay on SK-OV-3, > 100 µM (inactive). The GI50 is 89.9 µM with HCT-15; 54.3 µM (inactive) in the assay with MOLT-4; > 100 µM (inactive) in the assay on SF-295; 60.3 µM (inactive) with A549; > 100 µM (inactive) with SW-620; > 100 µM (inactive) in the assay with CAKI-1. The GI50 is > 100 µM (inactive) in the assay on Hs-578T and 84.5 µM (inactive) with SK-MEL-2.
As to `CC(=O)NC1C(OCc2ccccc2)OC(CO)C(O)C1OC(C)C(=O)NC(C)C(=O)NC(CCC(=O)NCCCCNc1c2ccccc2nc2cccc([N+](=O)[O-])c12)C(N)=O` (stereo not given), the GI50 in the assay on M14 was 0.277 µM (active); with HT-29, 0.00514 µM (active); in the assay on SK-MEL-5 it was 0.0356 µM (active); in the assay with HOP-92, 0.0176 µM (active); in the assay with HCC 2998 it was 0.013 µM (active); with OVCAR-8, 0.0228 µM (active). The GI50 is 0.0791 µM (active) in the assay on HOP-62; 0.0118 µM (active) with RPMI-8226; 0.0348 µM (active) with Malme-3M; 0.0482 µM (active) in the assay on KM12; 0.24 µM (active) with IGROV-1; 0.22 µM (active) in the assay on SK-OV-3. In addition, the GI50 was 0.00893 µM in the assay with HCT-15; 0.148 µM (active) in the assay on MOLT-4; 0.196 µM (active) in the assay with SF-295; 0.0404 µM (active) with A549; 0.00741 µM (active) in the assay with SW-620; 0.0325 µM (active) in the assay on CAKI-1. For the same compound, the GI50 in the assay with Hs-578T is 0.171 µM (active); with SK-MEL-2, 0.0944 µM (active).
For `NNC(=O)CCCCCCCC(=O)O`, the GI50 is > 100 µM (inactive) in the assay on M14; > 100 µM (inactive) in the assay with HT-29; > 100 µM (inactive) with SK-MEL-5; > 100 µM (inactive) with HOP-92; > 100 µM (inactive) in the assay with HCC 2998; 10.4 µM (inactive) in the assay on OVCAR-8. Besides, the GI50 with HOP-62, in the assay with RPMI-8226, in the assay on Malme-3M, in the assay with KM12, in the assay on IGROV-1 and in the assay with SK-OV-3 was > 100 µM (inactive) in each case. Also, the GI50 with HCT-15 is greater than 100 µM; in the assay with MOLT-4, > 100 µM (inactive); in the assay with SF-295 it was > 100 µM (inactive); with A549 it was > 100 µM (inactive); in the assay with SW-620, > 100 µM (inactive); in the assay on CAKI-1 it was > 100 µM (inactive). In addition, the GI50 in the assay with Hs-578T and in the assay on SK-MEL-2 was > 100 µM (inactive) throughout.
For the compound `Cn1c(=O)c2c(ncn2CCCCOc2ccc3c(c2)[n+]([O-])nc(N)[n+]3[O-])n(C)c1=O`, the GI50 was 29.4 µM (inactive) in the assay with M14; 43.2 µM (inactive) with HT-29; 9.38 µM (inactive) in the assay on SK-MEL-5; 4.76 µM (inactive) in the assay with HOP-92; 19.2 µM (inactive) in the assay with HCC 2998; 20 µM (inactive) in the assay on OVCAR-8. The GI50 in the assay on HOP-62 is 22.7 µM (inactive); in the assay with RPMI-8226 it was 30.5 µM (inactive); with Malme-3M, 21.1 µM (inactive); in the assay on KM12 it was 32.6 µM (inactive); with IGROV-1, 15.7 µM (inactive); in the assay with SK-OV-3, 30.3 µM (inactive). Further, the GI50 with HCT-15 is 65.2 µM; in the assay with MOLT-4 it was 25.4 µM (inactive); in the assay with SF-295, 32.6 µM (inactive); in the assay with A549 it was 65.6 µM (inactive); in the assay with SW-620 it was 39.6 µM (inactive); with CAKI-1, 59.8 µM (inactive). Further, the GI50 in the assay with Hs-578T was 22.9 µM (inactive); in the assay on SK-MEL-2, 28.9 µM (inactive).
